Holding throughout (assay type): functional
The test system of assay [1] is Rattus norvegicus. The assay is described as follows: Hypolipidemic activity in high fat-induced hyperlipidemic Sprague-Dawley rat assessed as VLDL level at 250 mg/kg, po dosed for last 7 days during 30 day high-fat diet feeding schedule (reference value: 23.48+/- 0.78 mg/dl).
Assay [2] has as its system Rattus norvegicus. The assay can be described thus: Hypolipidemic activity in high fat-induced hyperlipidemic Sprague-Dawley rat assessed as LDL level at 250 mg/kg, po dosed for last 7 days during 30 day high-fat diet feeding schedule (reference value: 22.42 +/- 0.41 mg/dl).
The subject of assay [3] is Rattus norvegicus. The assay is described as follows: Hypolipidemic activity in high fat-induced hyperlipidemic Sprague-Dawley rat assessed as triglyceride level at 250 mg/kg, po dosed for last 7 days during 30 day high-fat diet feeding schedule (reference value: 74.3+/- 0.48 mg/dl).
The test system of assay [4] is Rattus norvegicus. The assay can be described thus: Hypolipidemic activity in high fat-induced hyperlipidemic Sprague-Dawley rat assessed as HDL level at 250 mg/kg, po dosed for last 7 days during 30 day high-fat diet feeding schedule (reference value: 37.5 +/- 0.96 mg/dl).
The test system of assay [5] is Rattus norvegicus. The assay is described as follows: Effect on body weight in Sprague-Dawley rat at 250 mg/kg, po dosed for last 7 days during 30 day high-fat diet feeding schedule measured every 5th day (reference value: 207.67 +/- 1.2 g).
For assay [6], the system named is Rattus norvegicus. The assay is described as follows: Hypolipidemic activity in high fat-induced hyperlipidemic Sprague-Dawley rat assessed as ratio of cholesterol level to HDL level at 250 mg/kg, po dosed for last 7 days during 30 day high-fat diet feeding schedule (reference value: 1.88 +/- 0.05).
For assay [7], the system named is Rattus norvegicus. The assay can be described thus: Hypolipidemic activity in high fat-induced hyperlipidemic Sprague-Dawley rat assessed as cholesterol level at 250 mg/kg, po dosed for last 7 days during 30 day high-fat diet feeding schedule (reference value: 70.8 +/- 0.5 mg/dl).
The test system of assay [8] is Rattus norvegicus. The assay can be described thus: Hypoglycemic activity in Sprague-Dawley rat assessed as blood glucose level at 250 mg/kg, po dosed for last 7 days during 30 day high-fat diet feeding schedule (reference value: 63.70 +/- 0.7 mg/dl).

Molecules are shown by their SMILES.

`Cc1nc2ccccc2c(=O)n1-c1ccc(OCC(=O)O)cc1`: the Activity in the assay on Rattus norvegicus [1] was 34.89 mg/dL; in the assay with Rattus norvegicus [2], 47.66 mg/dL; with Rattus norvegicus [3], 117.1 mg/dL; with Rattus norvegicus [4], 39.1 mg/dL; with Rattus norvegicus [5], 273.85 g; with Rattus norvegicus [7], 78.5 mg/dL. Moreover, the Activity in the assay on Rattus norvegicus [8] came out at 91.8 mg/dL. The Ratio in the assay on Rattus norvegicus [6] is 1.99.

Take `Cc1nc2cc(O)ccc2c(=O)n1-c1ccc(OC(C)(C)C(=O)O)cc1`: the Activity stood at 35.38 mg/dL in the assay with Rattus norvegicus [1]; 35.81 mg/dL with Rattus norvegicus [2]; 114.8 mg/dL in the assay with Rattus norvegicus [3]; 40.8 mg/dL in the assay with Rattus norvegicus [4]; 260.1 g with Rattus norvegicus [5]; 77.7 mg/dL in the assay on Rattus norvegicus [7]. Besides, the Activity with Rattus norvegicus [8] turned out to be 83 mg/dL. Moreover, in the assay with Rattus norvegicus [6], the Ratio worked out at 1.9.

For `O=C(O)COc1ccc(-n2c(-c3ccccc3)nc3ccccc3c2=O)cc1`, the Activity in the assay with Rattus norvegicus [1] is 28.16 mg/dL; in the assay on Rattus norvegicus [2], 57.22 mg/dL; with Rattus norvegicus [3], 144.8 mg/dL; in the assay on Rattus norvegicus [4] it was 33.7 mg/dL; with Rattus norvegicus [5], 281.2 g; with Rattus norvegicus [7], 110.8 mg/dL. Besides, the Activity in the assay on Rattus norvegicus [8] worked out at 112.8 mg/dL. The Ratio in the assay on Rattus norvegicus [6] is on record as 3.26.

For `CC1N(c2ccc(OCC(=O)O)cc2)C(=O)c2ccccc2N1c1ccccc1` (configuration not stated), the Activity with Rattus norvegicus [1] worked out at 12.21 mg/dL; in the assay on Rattus norvegicus [2], 70.91 mg/dL; with Rattus norvegicus [3] it was 158.8 mg/dL; in the assay with Rattus norvegicus [4], 41.4 mg/dL; in the assay on Rattus norvegicus [5] it was 274.7 g; in the assay with Rattus norvegicus [7], 108.9 mg/dL. Moreover, the Activity with Rattus norvegicus [8] amounted to 114.1 mg/dL. Further, in the assay with Rattus norvegicus [6], the Ratio came to 2.67.

In the case of `CC1N(c2ccc(OC(C)(C)C(=O)O)cc2)C(=O)c2ccccc2N1c1ccccc1` (configuration not stated), the Activity in the assay on Rattus norvegicus [1] turned out to be 22.05 mg/dL; in the assay on Rattus norvegicus [2], 54.78 mg/dL; in the assay on Rattus norvegicus [3], 154.8 mg/dL; with Rattus norvegicus [4], 25.5 mg/dL; in the assay on Rattus norvegicus [5] it was 277.3 g; in the assay on Rattus norvegicus [7], 106.4 mg/dL. Also, in the assay on Rattus norvegicus [8], the Activity worked out at 115 mg/dL. Besides, the Ratio with Rattus norvegicus [6] was found to be 4.15.

As for `Cc1nc2ccccc2c(=O)n1-c1ccc(OC(C)(C)C(=O)O)cc1`, the Activity with Rattus norvegicus [1] is 37.05 mg/dL; with Rattus norvegicus [2], 44.66 mg/dL; with Rattus norvegicus [3] it was 154.1 mg/dL; in the assay on Rattus norvegicus [4] it was 40 mg/dL; in the assay on Rattus norvegicus [5], 272.17 g; in the assay on Rattus norvegicus [7], 93 mg/dL. Besides, the Activity in the assay on Rattus norvegicus [8] turned out to be 89.19 mg/dL. Also, the Ratio in the assay on Rattus norvegicus [6] is 2.32.

Take `Cc1nc2cc(O)ccc2c(=O)n1-c1ccc(OCC(=O)O)cc1`: the Activity with Rattus norvegicus [1] worked out at 37.7 mg/dL; with Rattus norvegicus [2], 47.05 mg/dL; in the assay with Rattus norvegicus [3] it was 116.8 mg/dL; in the assay on Rattus norvegicus [4] it was 40.5 mg/dL; in the assay on Rattus norvegicus [5], 261.7 g; in the assay on Rattus norvegicus [7] it was 77 mg/dL. The Activity in the assay with Rattus norvegicus [8] amounted to 85.3 mg/dL. Also, the Ratio with Rattus norvegicus [6] worked out at 1.88.

For the compound `CC(C)(Oc1ccc(-n2c(-c3ccccc3)nc3ccccc3c2=O)cc1)C(=O)O`, the Activity was determined as 24.3 mg/dL in the assay on Rattus norvegicus [1]; 64.33 mg/dL in the assay with Rattus norvegicus [2]; 158 mg/dL in the assay with Rattus norvegicus [3]; 31.6 mg/dL in the assay on Rattus norvegicus [4]; 284.5 g with Rattus norvegicus [5]; 97.5 mg/dL in the assay on Rattus norvegicus [7]. In addition, in the assay with Rattus norvegicus [8], the Activity came out at 114.8 mg/dL. In addition, the Ratio with Rattus norvegicus [6] is recorded as 3.11.

On to `CC(C)OC(=O)C(C)(C)Oc1ccc(C(=O)c2ccc(Cl)cc2)cc1` [FENOFIBRATE], for which the Activity was determined as 37 mg/dL in the assay on Rattus norvegicus [1]; 54.66 mg/dL with Rattus norvegicus [2]; 125.3 mg/dL in the assay with Rattus norvegicus [3]; 34.38 mg/dL with Rattus norvegicus [4]; 269 g with Rattus norvegicus [5]; 85.4 mg/dL in the assay on Rattus norvegicus [7]. Besides, in the assay with Rattus norvegicus [8], the Activity is 86.41 mg/dL. In addition, the Ratio in the assay with Rattus norvegicus [6] is recorded as 2.49.
